Data published in patent US4656166A, “Antibiotic compounds derived from cephalosporins, process for their production and pharmaceutical compositions” (Sanofi, priority 1983, dated 1987).
Converted amounts (≈) assume the structure as drawn.

How the values were obtained:
Type in all cases: cell-based
[1] = system: Pseudomonas RL 112; test: MIC, in vitro dilution method, Pseudomonas RL 112 (Table III); conditions: RL112
Description: (§1) The products of the invention have been studied as regards their pharmacological properties and, more especially, bacteriostatic action. This has been determined in vitro by the dilution method, and the study was on Gram negative strains.
(§2) Results, expressed in minimum inhibiting concentrations (MIC-- μg/ml), are collected in the following table (Table III).

[2] = system: Klebsiella RO 30; test: MIC, in vitro dilution method, Klebsiella RO 30 (Table III); conditions: RO30; Klebsiella RO 30; dilution method; read-out: MIC
Description: as §1, §2

[3] = system: Escherichia coli SOL 90; test: MIC, in vitro dilution method, Escherichia coli SOL 90 (Table III); conditions: SOL90; Escherichia coli SOL 90; dilution method; read-out: MIC
Description: as §1, §2

[4] = system: Enterobacter RO 154; test: MIC, in vitro dilution method, Enterobacter RO 154 (Table III); conditions: RO154; Enterobacter RO 154; dilution method; read-out: MIC
Description: as §1, §2

[5] = system: Citrobacter RL 49; test: MIC, in vitro dilution method, Citrobacter RL 49 (Table III); conditions: RL49; Citrobacter RL 49; dilution method; read-out: MIC
Description: as §1, §2

[6] = system: Proteus vulgaris RL 99 bis; test: MIC, in vitro dilution method, Proteus vulgaris RL 99 bis (Table III); conditions: RL99BIS; Proteus vulgaris RL 99 bis; dilution method; read-out: MIC
Description: as §1, §2

[7] = system: Serratia RL 72; test: MIC, in vitro dilution method, Serratia RL 72 (Table III); conditions: RL72
Description: as §1, §2

CC(C)(ON=C(C(=O)NC1C(=O)N2C(C(=O)O)=C(COC(=O)c3cccc(NC(=O)CCCN)c3)C[S+]([O-])C12)c1csc(N)n1)C(=O)O (stereo not drawn) [42 687]
MIC [1]: 8 mg/L (≈ 11.3 µM)
MIC [2]: 1 mg/L (≈ 1.42 µM)
MIC [3]: 2 mg/L (≈ 2.83 µM)
MIC [4]: 4 mg/L (≈ 5.67 µM)

CC(C)(ON=C(C(=O)NC1C(=O)N2C(C(=O)O)=C(COC(=O)c3csc(NC(=O)CCN)n3)C[S+]([O-])C12)c1csc(N)n1)C(=O)O (stereo not drawn) [42 587]
MIC [1]: 4 mg/L (≈ 5.72 µM)
MIC [2]: 0.25 mg/L (≈ 0.358 µM)
MIC [3]: 0.25 mg/L (≈ 0.358 µM)
MIC [4]: 8 mg/L (≈ 11.4 µM)

CC(ON=C(C(=O)NC1C(=O)N2C(C(=O)O)=C(CSC(=O)C3CCNCC3)C[S+]([O-])C12)c1csc(N)n1)C(=O)O (stereo not drawn) [compound 42218]
MIC [1]: 64 mg/L (≈ 104 µM)
MIC [2]: 0.5 mg/L (≈ 0.813 µM)
MIC [5]: 0.25 mg/L (≈ 0.407 µM)
MIC [6]: 0.5 mg/L (≈ 0.813 µM)
MIC [3]: 0.5 mg/L (≈ 0.813 µM)
MIC [4]: 0.5 mg/L (≈ 0.813 µM)
MIC [7]: 2 mg/L (≈ 3.25 µM)

CC(C)(N)C(=O)OCC1=C(C(=O)O)N2C(=O)C(NC(=O)/C(=N\OC(C)(C)C(=O)O)c3csc(N)n3)C2[S+]([O-])C1 (stereo not drawn) [41 858]
MIC [1]: 8 mg/L (≈ 13.6 µM)
MIC [2]: 0.5 mg/L (≈ 0.852 µM)
MIC [5]: 1 mg/L (≈ 1.7 µM)
MIC [6]: 0.5 mg/L (≈ 0.852 µM)
MIC [3]: 2 mg/L (≈ 3.41 µM)
MIC [4]: 8 mg/L (≈ 13.6 µM)
MIC [7]: 4 mg/L (≈ 6.82 µM)

CC(C)(ON=C(C(=O)NC1C(=O)N2C(C(=O)O)=C(COC(=O)CC(N)c3ccccc3)C[S+]([O-])C12)c1csc(N)n1)C(=O)O (stereo not drawn) [42 026]
MIC [1]: 8 mg/L (≈ 12.3 µM)
MIC [2]: 0.25 mg/L (≈ 0.385 µM)
MIC [5]: 0.25 mg/L (≈ 0.385 µM)
MIC [6]: ≤ 0.12 mg/L
MIC [3]: 0.5 mg/L (≈ 0.771 µM)
MIC [4]: 4 mg/L (≈ 6.17 µM)
MIC [7]: 1 mg/L (≈ 1.54 µM)

CC(C)(ON=C(C(=O)NC1C(=O)N2C(C(=O)O)=C(COC(=O)C3CCN(C(=O)CCN)CC3)C[S+]([O-])C12)c1csc(N)n1)C(=O)O (stereo not drawn) [42 782]
MIC [1]: 4 mg/L (≈ 5.85 µM)
MIC [2]: 0.125 mg/L (≈ 0.183 µM)
MIC [3]: 0.25 mg/L (≈ 0.366 µM)
MIC [4]: 2 mg/L (≈ 2.93 µM)

Cc1cc(C(=O)SCC2=C(C(=O)O)N3C(=O)C(NC(=O)C(=NOC(C)(C)C(=O)O)c4csc(N)n4)C3[S+]([O-])C2)ccc1CN (stereo not drawn) [compound 42661]
MIC [1]: 8 mg/L (≈ 12 µM)
MIC [2]: 0.25 mg/L (≈ 0.376 µM)
MIC [3]: 0.5 mg/L (≈ 0.752 µM)
MIC [4]: 1 mg/L (≈ 1.5 µM)

Cc1c(NC(=O)CN)cccc1C(=O)OCC1=C(C(=O)O)N2C(=O)C(NC(=O)C(=NOC(C)(C)C(=O)O)c3csc(N)n3)C2[S+]([O-])C1 (stereo not drawn) [42 585]
MIC [1]: 4 mg/L (≈ 5.78 µM)
MIC [2]: 0.25 mg/L (≈ 0.361 µM)
MIC [3]: 0.25 mg/L (≈ 0.361 µM)
MIC [4]: 8 mg/L (≈ 11.6 µM)

CN(C(=O)CN)c1ccc(C(=O)OCC2=C(C(=O)O)N3C(=O)C(NC(=O)C(=NOC(C)(C)C(=O)O)c4csc(N)n4)C3[S+]([O-])C2)cc1 (stereo not drawn) [42 657]
MIC [1]: 8 mg/L (≈ 11.6 µM)
MIC [2]: 0.25 mg/L (≈ 0.361 µM)
MIC [3]: 0.25 mg/L (≈ 0.361 µM)
MIC [4]: 4 mg/L (≈ 5.78 µM)

NCCC(=O)Nc1ccc(C(=O)OCC2=C(C(=O)O)N3C(=O)C(NC(=O)C(=NOC4(C(=O)O)CCC4)c4csc(N)n4)C3[S+]([O-])C2)cc1 (stereo not drawn) [42 658]
MIC [1]: 4 mg/L (≈ 5.68 µM)
MIC [2]: 0.125 mg/L (≈ 0.178 µM)
MIC [3]: 0.125 mg/L (≈ 0.178 µM)
MIC [4]: 8 mg/L (≈ 11.4 µM)

CNCC(=O)Nc1cccc(C(=O)OCC2=C(C(=O)O)N3C(=O)C(NC(=O)C(=NOC(C)(C)C(=O)O)c4csc(N)n4)C3[S+]([O-])C2)c1 (stereo not drawn) [42 583]
MIC [1]: 8 mg/L (≈ 11.6 µM)
MIC [2]: 0.5 mg/L (≈ 0.723 µM)
MIC [3]: 1 mg/L (≈ 1.45 µM)
MIC [4]: 4 mg/L (≈ 5.78 µM)

CC(C)(ON=C(C(=O)NC1C(=O)N2C(C(=O)O)=C(COC(=O)c3ccc(CN)c(F)c3)C[S+]([O-])C12)c1csc(N)n1)C(=O)O (stereo not drawn) [42 581]
MIC [1]: 4 mg/L (≈ 6.13 µM)
MIC [2]: 0.125 mg/L (≈ 0.192 µM)
MIC [3]: 0.125 mg/L (≈ 0.192 µM)
MIC [4]: 2 mg/L (≈ 3.06 µM)

NCC(=O)N1CCC(C(=O)SCC2=C(C(=O)O)N3C(=O)C(NC(=O)C(=NOC4(C(=O)O)CCC4)c4csc(N)n4)C3[S+]([O-])C2)CC1 (stereo not drawn) [compound 42674]
MIC [1]: 8 mg/L (≈ 11.5 µM)
MIC [2]: 0.5 mg/L (≈ 0.717 µM)
MIC [3]: 1 mg/L (≈ 1.43 µM)
MIC [4]: 2 mg/L (≈ 2.87 µM)

CNCC(=O)Nc1ccc(C(=O)OCC2=C(C(=O)O)N3C(=O)C(NC(=O)C(=NOC(C)(C)C(=O)O)c4csc(N)n4)C3[S+]([O-])C2)cc1 (stereo not drawn) [42 584]
MIC [1]: 4 mg/L (≈ 5.78 µM)
MIC [2]: 0.25 mg/L (≈ 0.361 µM)
MIC [3]: 0.25 mg/L (≈ 0.361 µM)
MIC [4]: 2 mg/L (≈ 2.89 µM)

NCC(=O)Nc1cccc(C(=O)SCC2=C(C(=O)O)N3C(=O)C(NC(=O)C(=NOC4(C(=O)O)CCC4)c4csc(N)n4)C3[S+]([O-])C2)c1 (stereo not drawn) [compound 42686]
MIC [1]: 8 mg/L (≈ 11.3 µM)
MIC [2]: 1 mg/L (≈ 1.42 µM)
MIC [3]: 2 mg/L (≈ 2.83 µM)
MIC [4]: 2 mg/L (≈ 2.83 µM)

CC(N)C(=O)Nc1ccc(C(=O)OCC2=C(C(=O)O)N3C(=O)C(NC(=O)C(=NOC4(C(=O)O)CCC4)c4csc(N)n4)C3[S+]([O-])C2)cc1 (stereo not drawn) [42 818]
MIC [1]: 4 mg/L (≈ 5.68 µM)
MIC [2]: 0.125 mg/L (≈ 0.178 µM)
MIC [3]: 0.125 mg/L (≈ 0.178 µM)
MIC [4]: 4 mg/L (≈ 5.68 µM)

CNCc1ccc(C(=O)OCC2=C(C(=O)O)N3C(=O)C(NC(=O)C(=NOC(C)(C)C(=O)O)c4csc(N)n4)C3[S+]([O-])C2)cc1F (stereo not drawn) [42 582]
MIC [1]: 8 mg/L (≈ 12 µM)
MIC [2]: 0.25 mg/L (≈ 0.375 µM)
MIC [3]: 0.25 mg/L (≈ 0.375 µM)
MIC [4]: 2 mg/L (≈ 3 µM)

CC(C)(ON=C(C(=O)NC1C(=O)N2C(C(=O)O)=C(COC(=O)C3CCC(N)CC3)C[S+]([O-])C12)c1csc(N)n1)C(=O)O (stereo not drawn) [42 811]
MIC [1]: 4 mg/L (≈ 6.38 µM)
MIC [2]: 0.125 mg/L (≈ 0.199 µM)
MIC [3]: 0.125 mg/L (≈ 0.199 µM)
MIC [4]: 2 mg/L (≈ 3.19 µM)
